From patent US20170209534A1, “Pseudhymenochirins As Agents For Treatment Of Cancer And Microbial Infections” (priority 2014, published 2017)
Like-named read-outs stand apart in the source and are kept apart here. No end group written: not given here.

Key:
[1] = test system: Stenotrophomonas maltophilia strains; conditions: all Stenotrophomonas strains (B32/1, B32/4, B5/5, B6/2, U8708); cited from earlier work
Acinetobacter strains = conditions: strains NM8, NM35, NM75, NM109, NM124; Mechkarska et al., 2013; cited from earlier work
[2] = test system: human breast adenocarcinoma MDA-MB-231 cells; experiment: Viability assay (CellTiter-Glo, ATP), MDA-MB-231; type: cell-based; conditions: 24 h exposure; mean ± S.E.M.; read-out: LC50 MDA-231
Protocol: (§1) For cytotoxicity assay, the effect of the peptides on three different types of cancer cells were analysed, human non-small cell lung adenocarcinoma A549 cells, human breast adenocarcinoma MDA-MB-231 cells and human colorectal adenocarcinoma HT-29 cells. As control, HUVEC cell line was selected.
(§2) A549 cell line was maintained in RPMI 1640 medium containing 2 mM L-glutamine and supplemented with 10% FCS at 37° C. MDA-MB-231 and HT-29 cell lines were maintained in DMEM medium supplemented with 10% FCS at 37° C. The medium for cancer cells were further supplemented with antibiotics, penicillin 50 U/mL and streptomycin […]. HUVEC cells were maintained in EndoGRO MV-VEGF Complete Media Kit at 37° C.
(§3) The cells from each of the four cell lines were seeded individually in a 96-wells plate at a cell density of 5×10^3 cells/well. […]
(§4) The effect of the peptides on the cell viability was determined by the measurement of the concentration of ATP using CellTitre-Glo Luminescent Cell Viability assay. Luminescent signals were measured using a GLOMAX Luminometer system.
(§5) The LC50 value was calculated for both the peptides for individual cell lines by conducting non-linear regression analysis using commercially available software (SPPS version 17.0; SPS Inc, Chicago, Ill., USA). […]

in vitro = type: cell-based
Protocol: as §1, §2, §3, §4, §5

E. faecalis ATCC 29212 = experiment: MIC by micro-dilution, E. faecalis; type: cell-based, Enterococcus faecalis; conditions: reference strain
Protocol: (§6) Minimum Inhibitory Concentration (MIC) of the peptides was determined in duplicate in three independent experiments by standard micro-dilution methods according to CLSI guidelines (Clinical Laboratory and Standards Institute 2008a, 2008b) using 96-well microtitre cell-culture plates.
(§7) For bacteria assays, serial dilutions of the peptides (0.6-80 μM) in Mueller-Hinton broth (50 μL) were mixed with an inoculum of 50 μL of 10^6 colony forming units (CFU)/mL) from a log-phase culture. The peptide and inoculum mixture was incubated for 18 h at 37° C. in a humidified atmosphere. For yeast, an inoculum of 5×10^4 CFU/mL from Candida albicans was incubated in the presence of serial dilutions of the peptides (0.6-80 μM) in RPMI 1640 medium for 48 h at 35° C. After incubation, the absorbance at 630 nm of each well was determined using a microtiter plate reader.

[3] = test system: S. aureus (ATCC 25923 and MRSA clinical isolates); type: cell-based, Staphylococcus aureus; conditions: for Minimum inhibitory concentration S. aureus ATCC 25923 / Minimum inhibitory concentration S. aureus S908: ATCC 25923; for Minimum inhibitory concentration S. aureus 127/08 / Minimum inhibitory concentration S. aureus 145/08 / Minimum inhibitory concentration S. aureus 274/08 / Minimum inhibitory concentration S. aureus T4/6: MRSA clinical isolate
Description: Six clinical sporadic isolates of MRSA were isolated from the wounds of patients admitted to Tawam Hospital (Al Ain, UAE). The strains were characterised by multi-locus sequence typing (MLST), Staphylococcal cassette chromosome (SCCmec) typing, accessory gene regulator (agr) typing, Staphylococcus protein A (spa) typing, and toxin gene carriage (Sonnevend et al., 2012). The isolated strains (127/08, 145/08, 274/08, V4180, S908, and T4/6) were resistant to all β-lactam antibiotics tested and to a range of non-β-lactam antibiotics.
as §6, §7
(§8) As a control, incubations were carried out in parallel with increasing concentrations of antibiotics wherever the isolate was originally susceptible (ampicillin for S. aureus and E. coli, ciprofloxacin for K. pneumoniae and P. aeruginosa, and amphotericin B for C. albicans).

[4] = test system: human colorectal adenocarcinoma HT-29 cells; experiment: Viability assay (CellTiter-Glo, ATP), HT-29; type: cell-based; conditions: 24 h exposure; mean ± S.E.M.; read-out: LC50 HT-29
Protocol: as §1, §2, §3, §4, §5

E. coli = experiment: MIC by micro-dilution, E. coli; type: cell-based; conditions: reference strain
Protocol: as §6, §7, §8

S. maltophilia = test system: S. maltophilia
Protocol: (§9) Acinetobacter strains (NM8, NM35, NM75, NM109, and NM124) were isolated from different hospitals in the UAE. The Acinetobacter strains were characterised based on PCR analysis. […] Stenotrophomonas maltophilia strains (B32/1, B32/4, B5/5, B6/2, and U8708) were isolated from patients with bloodstream infection as discussed in Jumaa et al, 2006.
as §6, §7

A. baumannii = test system: A. baumannii
Protocol: as §9, §6, §7

K. pneumoniae = experiment: MIC by micro-dilution, K. pneumoniae; type: cell-based; conditions: reference strain
Protocol: as §6, §7, §8

[5] = test system: human red blood cells (RBC); experiment: Haemolysis assay; type: cell-based
Protocol: (§10) For analysis of the haemolytic activity, RBCs (2×10^7 cells) taken from a healthy donor in DBPS, pH 7.4 (100 μL) were incubated with Ps-1Pb and Ps-2 Pa respectively in varying concentrations ranging from 1.6 μM to 100 μM of the peptides for a period of 1 hour at 37° C. After 1 hr, the samples were centrifuged at 12000 rpm for 15 seconds and the supernatant was collected. Absorbance of the supernatant was measured at 450 nm.
(§11) As control, the RBCs at a concentration of 2×10^7 were incubated in DBPS as a negative control to detect the absorbance in the absence of haemolysis. In addition, positive control was also maintained in which the RBC at a concentration of 2×10^7 was incubated with DPBS and 1% v/v Tween-20. The controls were centrifuged at 12000 rpm for 15 seconds and an absorbance reading was taken for the supernatant at 450 nm.
(§12) The LC50 value was taken as the mean concentration of peptide producing 50% haemolysis in three independent experiments.

Haemolysis assay = type: cell-based, human; conditions: human, pH 7.4
Protocol: as §10, §11, §12

S. epidermidis = experiment: MIC by micro-dilution, S. epidermidis; type: cell-based; conditions: for Minimum inhibitory concentration S. epidermidis RP62A: strain RP62A; for Minimum inhibitory concentration S. epidermidis RP62A/1: strain RP62A/1; for Minimum inhibitory concentration S. epidermidis T6/19: strain T6/19; for Minimum inhibitory concentration S. epidermidis T37/8: strain T37/8
Protocol: as §6, §7

C. albicans = experiment: MIC by micro-dilution, C. albicans; type: cell-based, Candida albicans; conditions: reference strain; RPMI 1640, 48 h at 35° C.
Protocol: as §6, §7, §8

P. aeruginosa = experiment: MIC by micro-dilution, P. aeruginosa; type: cell-based; conditions: reference strain
Protocol: as §6, §7, §8

S. aureus (ATCC 25923) = type: cell-based; conditions: 4×MIC, within 180 min
Protocol: In order to determine the rate at which the peptides caused cell death, log-phase cultures of S. aureus (ATCC 25923) and E. coli (ATCC 25726) at a concentration of 0.5×10^6 CFU/mL in Mueller-Hinton broth (1 ml) were incubated in polypropylene tubes at 37° C. with Ps-1Pb at a concentration of 4×MIC. Control incubations in the absence of peptide were also carried out. Aliquots of 25 μl were removed at the time intervals 0, 0.5, 1, 2, 3, 4 and 24 hrs and the CFU of the serially diluted samples was determined on Mueller-Hinton agar plates. The time required for 99.9% cell death was determined.

[6] = 1 hour at 37° C., mean ± S.E.M., read-out: LC50 RBC (50% haemolysis)

| Compound | MIC against Stenotrophomonas strains [1] | susceptibility of Acinetobacter strains (in words) (Acinetobacter strains) | Minimum inhibitory concentration E. faecalis ATCC 29212 (E. faecalis ATCC 29212) | Minimum inhibitory concentration S. aureus V4180 [3] | Minimum inhibitory concentration S. aureus ATCC 25923 [3] | Minimum inhibitory concentration S. aureus S908 [3] | Minimum inhibitory concentration S. aureus 127/08 [3] | Minimum inhibitory concentration S. aureus 145/08 [3] | Minimum inhibitory concentration S. aureus 274/08 [3] | Minimum inhibitory concentration S. aureus T4/6 [3] | Minimum inhibitory concentration E. coli (E. coli) | Minimum inhibitory concentration S. maltophilia B5/5 (S. maltophilia; clinical isolate) | Minimum inhibitory concentration S. maltophilia B6/2 (S. maltophilia; clinical isolate) | Minimum inhibitory concentration S. maltophilia B32/1 (S. maltophilia; clinical isolate) | Minimum inhibitory concentration S. maltophilia B32/4 (S. maltophilia; clinical isolate) | Minimum inhibitory concentration A. baumannii NM8 (A. baumannii) | Minimum inhibitory concentration A. baumannii NM35 (A. baumannii) | Minimum inhibitory concentration A. baumannii NM75 (A. baumannii) | Minimum inhibitory concentration A. baumannii NM109 (A. baumannii) | Minimum inhibitory concentration A. baumannii NM124 (A. baumannii) | also measured |
| --- | --- | --- | --- | --- | --- | --- | --- | --- | --- | --- | --- | --- | --- | --- | --- | --- | --- | --- | --- | --- | --- |
| C[C@@H](O)[C@H]1C(=O)N2C(C(=O)O)=C(S[C@@H]3CN[C@H](C(=O)N(C)C)C3)[C@H](C)[C@H]12 [meropenem] | > 32 µg/mL | – | – | – | – | – | – | – | – | – | – | – | – | – | – | – | – | – | – | – | – |
| CN(C)c1cc(NC(=O)CNC(C)(C)C)c(O)c2c1C[C@H]1C[C@H]3[C@H](N(C)C)C(O)=C(C(N)=O)C(=O)[C@@]3(O)C(O)=C1C2=O [tigecycline] | – | sensitive | – | – | – | – | – | – | – | – | – | – | – | – | – | – | – | – | – | – | – |
| GIFPIFAKLLGKVIKVASSLISKGRTE [Pseudhymenochirin-2Pa, Pseudhymenochirin-2 Pa] | – | – | 20 µM | 10 µM | 5 µM | 10 µM | 5 µM | 10 µM | 10 µM | 10 µM | >80 µM | 40 µM | 20 µM | 10 µM | 10 µM | 20 µM | 10 µM | 10 µM | 10 µM | 20 µM | CC50 [2]: 6.2 ± 0.6 µM; CC50 at 24 h (in vitro; 24 h exposure, non-neoplastic cells, mean ± S.E.M., read-out: LC50 HUVEC): 68 µM; CC50 [4]: 11.5 ± 2.6 µM; Minimum inhibitory concentration S. maltophilia U8908 (S. maltophilia; clinical isolate): 20 µM; Minimum inhibitory concentration K. pneumoniae (K. pneumoniae): >80 µM; CC50 [5, 6]: 6 µM; haemolytic activity (in words) ([5]; human erythrocytes): appreciable haemolytic activity; HC50 at 1 hour (Haemolysis assay; [6]): 6.2 ± 1 µM; Minimum inhibitory concentration S. epidermidis RP62A (S. epidermidis): 5 µM; Minimum inhibitory concentration S. epidermidis RP62A/1 (S. epidermidis): 2.5 µM; Minimum inhibitory concentration S. epidermidis T6/19 (S. epidermidis): 5 µM; Minimum inhibitory concentration S. epidermidis T37/8 (S. epidermidis): 10 µM; Minimum inhibitory concentration C. albicans (C. albicans): 80 µM; Minimum inhibitory concentration P. aeruginosa (P. aeruginosa): >80 µM |
| IKIPSFFRNILKKVGKEAVSLIAGALKQS [Pseudhymenochirin-1Pb] | – | – | 10 µM | 5 µM | 5 µM | 5 µM | 5 µM | 10 µM | 5 µM | 5 µM | 10 µM | 10 µM | 5 µM | 5 µM | 5 µM | 10 µM | 5 µM | 5 µM | 5 µM | 5 µM | CC50 at 24 h (in vitro; human): 5.6 ± 0.9 µM; MIC against clinical isolates of S. maltophilia (range) (S. maltophilia): 5 to 10 µM; Minimum inhibitory concentration S. maltophilia U8908 (S. maltophilia): 5 µM; MIC against clinical isolates of A. baumannii (range) (A. baumannii): 5 to 10 µM; Minimum inhibitory concentration K. pneumoniae (K. pneumoniae): 20 µM; haemolytic activity (in words) [5]: high haemolytic activity; less cytotoxic to human erythrocytes as compared to the tumour cells [5]: 3-11 fold; HC50 at 1 hour (Haemolysis assay): 28 ± 2 µM; Minimum inhibitory concentration S. epidermidis RP62A (S. epidermidis): 2.5 µM; Minimum inhibitory concentration S. epidermidis RP62A/1 (S. epidermidis): 1.25 µM; Minimum inhibitory concentration S. epidermidis T6/19 (S. epidermidis): 2.5 µM; Minimum inhibitory concentration S. epidermidis T37/8 (S. epidermidis): 2.5 µM; Minimum inhibitory concentration C. albicans (C. albicans): 80 µM; killing of the bacteria, S. aureus (S. aureus (ATCC 25923)): > 99.9%; Minimum inhibitory concentration P. aeruginosa (P. aeruginosa): 20 µM |
| co-trimoxazole | < 5 µg/mL | – | – | – | – | – | – | – | – | – | – | – | – | – | – | – | – | – | – | – | – |
| colistin | – | sensitive | – | – | – | – | – | – | – | – | – | – | – | – | – | – | – | – | – | – | – |
